The text below walks through data of ChEMBL document CHEMBL1909558, “Discovery, synthesis and SAR analysis of novel selective small molecule S1P4-R agonists based on a (2Z,5Z)-5-((pyrrol-3-yl)methylene)-3-alkyl-2-(alkylimino)thiazolidin-4-one chemotype” (Bioorg Med Chem Lett, 2011).

What is called EC50 is the concentration needed to bring the measured effect to its halfway point. The inhibition is the relative decrease from the control value, in per cent. A lower inhibition goes with a response near the control.

Assay [1] addresses Sphingosine 1-phosphate receptor 3 (Homo sapiens) (UniProt Q99500). As to the kind of experiment: Agonist activity at S1P3 receptor at 25 uM. In kind it is functional.
Assay [2] addresses T1, Sphingosine 1-phosphate receptor 2 (Homo sapiens, UniProt O95136). As to the kind of experiment: Agonist activity at S1P2 receptor at 25 uM. The class given is functional.
Assay [3] concerns the target T2, Sphingosine 1-phosphate receptor 5 (Homo sapiens, UniProt Q9H228). Put plainly: Agonist activity at S1P5 receptor. In kind it is functional.
The target of assay [4] is T3, Sphingosine 1-phosphate receptor 1 (Homo sapiens, UniProt P21453). As to the kind of experiment: Antagonist activity at S1P1 receptor at 25 uM. The class given is functional.
T3 sequence (P21453 whole entry): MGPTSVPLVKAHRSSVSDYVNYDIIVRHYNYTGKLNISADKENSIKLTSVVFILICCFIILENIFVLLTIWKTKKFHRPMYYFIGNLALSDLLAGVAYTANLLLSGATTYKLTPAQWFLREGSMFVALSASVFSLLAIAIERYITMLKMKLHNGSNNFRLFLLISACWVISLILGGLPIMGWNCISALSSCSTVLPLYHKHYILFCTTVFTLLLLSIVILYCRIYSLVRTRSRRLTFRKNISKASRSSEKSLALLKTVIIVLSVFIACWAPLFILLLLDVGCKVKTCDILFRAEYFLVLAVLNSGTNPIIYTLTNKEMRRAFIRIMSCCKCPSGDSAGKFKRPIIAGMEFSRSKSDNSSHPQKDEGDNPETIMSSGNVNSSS
Assay [5] has as its target T4, Sphingosine 1-phosphate receptor 4 (Homo sapiens, UniProt O95977).
T4 sequence (O95977 whole entry): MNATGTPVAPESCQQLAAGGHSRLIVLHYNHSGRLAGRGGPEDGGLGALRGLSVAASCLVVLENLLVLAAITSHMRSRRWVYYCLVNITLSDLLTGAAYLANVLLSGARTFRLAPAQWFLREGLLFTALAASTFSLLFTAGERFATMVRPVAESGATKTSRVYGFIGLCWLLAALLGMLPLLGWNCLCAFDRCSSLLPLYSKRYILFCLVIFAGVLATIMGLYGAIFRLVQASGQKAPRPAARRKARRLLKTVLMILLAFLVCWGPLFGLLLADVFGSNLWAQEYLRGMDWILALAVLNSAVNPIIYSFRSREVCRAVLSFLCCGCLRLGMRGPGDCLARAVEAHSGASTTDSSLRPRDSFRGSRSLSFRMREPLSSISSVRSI
As to the kind of experiment: Agonist activity at S1P4 receptor in human U2OS cells expressing VP16-GAL4 transcriptional factor and beta-arrestin/TEV protease fusion protein assessed as migration of VP16-GAL4 into nucleus by FRET based beta lactamase reporter gene assay. In kind it is functional, cell-based.

Assay [6] has as its target T2, Sphingosine 1-phosphate receptor 5. Put plainly: Agonist activity at S1P5 receptor relative to control. The class given is functional.
For assay [7], the target named is T3, Sphingosine 1-phosphate receptor 1. Put plainly: Agonist activity at S1P1 receptor relative to control. In kind it is functional.
Assay [8] has the same target. Put plainly: Agonist activity at S1P1 receptor. In kind it is functional.
The target of assay [9] is T1, Sphingosine 1-phosphate receptor 2. Put plainly: Agonist activity at S1P2 receptor. The class given is functional.

Activity calls are given as the source filed them. The rule behind the calls is not given here.

T1 sequence (O95136 whole entry): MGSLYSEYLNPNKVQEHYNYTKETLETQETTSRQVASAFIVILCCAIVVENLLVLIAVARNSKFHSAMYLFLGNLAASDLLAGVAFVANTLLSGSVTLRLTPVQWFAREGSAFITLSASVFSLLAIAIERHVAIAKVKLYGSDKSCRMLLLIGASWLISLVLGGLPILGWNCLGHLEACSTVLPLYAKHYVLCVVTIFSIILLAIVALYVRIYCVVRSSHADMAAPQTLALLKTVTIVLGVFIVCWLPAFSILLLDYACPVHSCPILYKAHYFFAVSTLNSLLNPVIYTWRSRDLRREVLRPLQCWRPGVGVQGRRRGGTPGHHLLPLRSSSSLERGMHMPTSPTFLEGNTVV
Sequence of Sphingosine 1-phosphate receptor 3 (Homo sapiens) (Q99500 whole entry): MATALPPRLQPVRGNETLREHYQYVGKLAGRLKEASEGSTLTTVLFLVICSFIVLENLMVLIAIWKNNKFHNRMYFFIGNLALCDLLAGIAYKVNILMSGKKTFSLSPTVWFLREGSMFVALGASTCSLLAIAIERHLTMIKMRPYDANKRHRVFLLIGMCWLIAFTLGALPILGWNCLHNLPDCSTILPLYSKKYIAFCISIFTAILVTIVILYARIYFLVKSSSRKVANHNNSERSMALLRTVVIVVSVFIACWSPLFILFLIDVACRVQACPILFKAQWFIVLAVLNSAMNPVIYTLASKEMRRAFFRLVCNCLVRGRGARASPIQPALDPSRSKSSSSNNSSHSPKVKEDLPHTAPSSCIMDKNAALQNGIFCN
T2 sequence (Q9H228 whole entry): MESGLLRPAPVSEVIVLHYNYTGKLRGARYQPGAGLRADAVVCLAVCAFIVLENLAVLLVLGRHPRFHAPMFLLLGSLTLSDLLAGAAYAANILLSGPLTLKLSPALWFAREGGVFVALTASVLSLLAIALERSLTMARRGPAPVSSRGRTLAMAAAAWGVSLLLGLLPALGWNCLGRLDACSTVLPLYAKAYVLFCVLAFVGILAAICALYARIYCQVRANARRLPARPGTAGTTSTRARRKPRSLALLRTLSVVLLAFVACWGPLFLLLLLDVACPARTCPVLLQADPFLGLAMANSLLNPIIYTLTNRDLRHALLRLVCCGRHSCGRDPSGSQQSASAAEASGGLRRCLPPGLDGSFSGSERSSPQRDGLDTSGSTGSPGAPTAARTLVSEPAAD

Turning to `COCC/N=C1\S/C(=C\c2cc(C)n(Cc3ccccc3)c2C)C(=O)N1C`, the outcome in [1] and in assay [2] was inactive. Besides, the EC50 in assay [3] was 196 nM; in assay [5], 68 nM. In assay [4], this molecule yielded an inhibition of 85%. The same molecule came in with an Efficacy in [6] of 80%.
As for `C/N=C1\S/C(=C\c2cc(C)n(-c3ccc(F)cc3)c2C)C(=O)N1C`, the result in assay [1] and in [2] was inactive. Besides, the results for the Efficacy in [7] and in assay [6] were 70% and 50%, respectively. In addition, the EC50 stood at 652 nM in assay [3], 433 nM in assay [5] and 1800 nM in assay [8].
For `C/N=C1\S/C(=C\c2cc(C)n(Cc3ccccc3)c2C)C(=O)N1C`, in assay [1], the result was inactive. For the same molecule, the EC50 in assay [3] is 144 nM; in [9], 3.65 µM; in [5], 262 nM; in [8], 720 nM.
